According to PMC4306942, “Asperlones A and B, Dinaphthalenone Derivatives from a Mangrove Endophytic Fungus Aspergillus sp. 16-5C” (Marine Drugs, 2015):

Columns and labels:
[1] = target: T1, Mycobacterium tuberculosis protein tyrosine phosphatase B (MptpB) (Mycobacterium tuberculosis, UniProt I6WXK4); experiment: MptpB inhibition assay (RediPlate 96 EnzChek Tyrosine Phosphatase Assay kit, DiFMUP hydrolysis); type: biochemical; conditions: for IC50: fluorogenic substrate DiFMUP, average of three independent experiments, read-out: IC50 against MptpB; for inhibitory activity against MptpB (in words): bioassay summary in conclusions
T1 construct: The full-length PTPB gene was amplified from genomic DNA of the Mtb H37Rv strain; His6 (N); made in house; host or cells: Escherichia coli BL21(DH3) (so in the source)
T1 sequence (I6WXK4 whole entry, looked up): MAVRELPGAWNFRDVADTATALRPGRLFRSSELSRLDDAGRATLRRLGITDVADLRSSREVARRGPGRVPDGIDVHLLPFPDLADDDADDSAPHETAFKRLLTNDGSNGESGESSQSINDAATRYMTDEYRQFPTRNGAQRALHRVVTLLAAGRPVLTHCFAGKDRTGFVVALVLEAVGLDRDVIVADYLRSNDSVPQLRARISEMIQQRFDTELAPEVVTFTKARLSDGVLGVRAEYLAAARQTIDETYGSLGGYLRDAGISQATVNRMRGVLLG

SMILES	IC50 [1]	inhibitory activity against MptpB (in words) [1]	melting point
O=C1C2=C3C(=CC(=O)c4c(O)cc(O)cc43)OC2(O)Cc2cc(O)cc(O)c21 (racemic) [Compound 2, (±)-asperlone B]	4.32 ± 0.6 µM	strong inhibitory activity	–
C/C=C/C1=CC2=CC(=O)[C@@](C)(OC(=O)c3c(C)cc(O)cc3O)C(=O)C2=CO1 [Compound 6, (−)-mitorubrin]	3.99 ± 0.34 µM	strong inhibitory activity	–
O=C1C2=C3C(=CC(=O)c4c(O)cccc43)OC2(O)Cc2cc(O)cc(O)c21 (racemic) [Compound 1, (±)-asperlone A]	4.24 ± 0.41 µM	strong inhibitory activity	–
Cc1c(O)c(O)cc(O)c1C(=O)O[C@]1(C)C(=O)C=C2C=C(C=CC(=O)O)OC=C2C1=O [Compound 3, 6″-hydroxy-(R)-mitorubrinic acid]	> 50 µM	–	> 300 °C
Cc1cc(O)cc(O)c1C(=O)O[C@]1(C)C(=O)C=C2C=C(/C=C/C(=O)O)OC=C2C1=O [Compound 5, (−)-mitorubrinic acid]	> 50 µM	–	–
[Na+].[Na+].[Na+].[O]=[V]([O-])([O-])[O-] [Positive Control, sodium orthovanadate, reference compound]	0.05 µM	–	–
